From PubChem BioAssay (NCI)
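Protocol summary: plate cells (96-well), add compound at 5 concentrations, incubate 48 h, interpolate endpoints linearly. At the TGI there is no net growth.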

Experiments:
Test in all cases: NCI-60 cell line screen, 48 h
[1] = system: MDA-MB-435
[2] = system: SF-539 CNS
[3] = system: MDA-N
[4] = system: 786-0 renal
[5] = system: SF-295 CNS
[6] = system: HOP-92 NSCLC
[7] = system: DU-145 prostate
[8] = system: CCRF-CEM leukemia
[9] = system: RXF 393 renal
[10] = system: MCF7 breast
[11] = system: OVCAR-4 ovarian
[12] = system: SF-268 CNS
[13] = system: A549 NSCLC
[14] = system: SR leukemia
[15] = system: UACC-62 melanoma
[16] = system: LOX IMVI melanoma
[17] = system: EKVX NSCLC
[18] = system: SK-MEL-5 melanoma
[19] = system: UACC-257 melanoma
[20] = system: ACHN renal
[21] = system: K-562 leukemia
[22] = system: U251 CNS
[23] = system: HT29 colon
[24] = system: OVCAR-5 ovarian
[25] = system: T-47D breast
[26] = system: M14 melanoma
[27] = system: PC-3 prostate
[28] = system: SK-MEL-28 melanoma
[29] = system: A498 renal
[30] = system: HOP-62 NSCLC
[31] = system: MOLT-4 leukemia
[32] = system: SW-620 colon
[33] = system: OVCAR-8 ovarian
[34] = system: CAKI-1 renal
[35] = system: NCI/ADR-RES ovarian
[36] = system: HCT-15 colon
[37] = system: MALME-3M melanoma
[38] = system: OVCAR-3 ovarian
[39] = system: KM12 colon
[40] = system: HCC-2998 colon
[41] = system: SN12C renal
[42] = system: SK-MEL-2 melanoma
[43] = system: NCI-H460 lung
[44] = system: SNB-75 CNS
[45] = system: NCI-H522 lung
[46] = system: HL-60(TB) leukemia
[47] = system: SNB-19 CNS
[48] = system: TK-10 renal
[49] = system: IGROV1 ovarian
[50] = system: MDA-MB-231 breast
[51] = system: HS 578T breast
[52] = system: UO-31 renal
[53] = system: RPMI-8226 leukemia
[54] = system: NCI-H23 lung
[55] = system: SK-OV-3 ovarian
[56] = system: COLO 205 colon
[57] = system: HCT-116 colon
[58] = system: NCI-H226 lung

CC1=C2C(=O)c3ccccc3C(=O)[C@H]2C[C@@H](N2CCCC2=O)O1
TGI [1]: 33.1 µM | TGI [2]: 49.1 µM | TGI [3]: 30 µM | TGI [4]: 65.5 µM | TGI [5]: > 100 µM | TGI [6]: 61.7 µM | TGI [7]: 54.7 µM | TGI [8]: 81.8 µM | TGI [9]: 45.3 µM | TGI [10]: 29.9 µM | TGI [11]: 38.2 µM | TGI [12]: > 100 µM | TGI [13]: > 100 µM | TGI [14]: 87.7 µM | TGI [15]: > 100 µM | TGI [16]: 37.8 µM | TGI [17]: > 100 µM | TGI [18]: 32.7 µM | TGI [19]: > 100 µM | TGI [20]: > 100 µM | TGI [21]: > 100 µM | TGI [22]: 76.4 µM | TGI [23]: > 100 µM | TGI [24]: 42.5 µM | TGI [25]: 53.5 µM | TGI [26]: 34.9 µM | TGI [27]: > 100 µM | TGI [28]: > 100 µM | TGI [29]: > 100 µM | TGI [30]: > 100 µM | TGI [31]: > 100 µM | TGI [32]: 66.9 µM | TGI [33]: > 100 µM | TGI [34]: > 100 µM | TGI [35]: 97 µM | TGI [36]: > 100 µM | TGI [37]: 31.8 µM | TGI [38]: 63.9 µM | TGI [39]: > 100 µM | TGI [40]: > 100 µM | TGI [41]: > 100 µM | TGI [42]: > 100 µM | TGI [43]: > 100 µM | TGI [44]: 61 µM | TGI [45]: > 100 µM | TGI [46]: > 100 µM | TGI [47]: > 100 µM | TGI [48]: > 100 µM | TGI [49]: > 100 µM | TGI [50]: > 100 µM | TGI [51]: > 100 µM | TGI [52]: > 100 µM | TGI [53]: 49.5 µM | TGI [54]: 57.1 µM | TGI [55]: > 100 µM | TGI [56]: > 100 µM

CCOC(=O)c1c(SCc2ccccc2)nc2c3ccccc3ccn12
TGI [1]: > 100 µM | TGI [2]: > 100 µM | TGI [3]: > 100 µM | TGI [4]: > 100 µM | TGI [5]: > 100 µM | TGI [6]: 27.5 µM | TGI [7]: > 100 µM | TGI [8]: > 100 µM | TGI [9]: > 100 µM | TGI [10]: > 100 µM | TGI [11]: > 100 µM | TGI [12]: > 100 µM | TGI [13]: > 100 µM | TGI [14]: > 100 µM | TGI [15]: > 100 µM | TGI [16]: > 100 µM | TGI [17]: > 100 µM | TGI [18]: > 100 µM | TGI [19]: > 100 µM | TGI [20]: > 100 µM | TGI [21]: > 100 µM | TGI [22]: > 100 µM | TGI [23]: > 100 µM | TGI [24]: > 100 µM | TGI [25]: > 100 µM | TGI [26]: > 100 µM | TGI [27]: > 100 µM | TGI [28]: > 100 µM | TGI [29]: > 100 µM | TGI [30]: > 100 µM | TGI [31]: > 100 µM | TGI [32]: > 100 µM | TGI [33]: > 100 µM | TGI [57]: > 100 µM | TGI [34]: > 100 µM | TGI [35]: > 100 µM | TGI [36]: > 100 µM | TGI [37]: > 100 µM | TGI [58]: > 100 µM | TGI [39]: > 100 µM | TGI [40]: > 100 µM | TGI [41]: > 100 µM | TGI [42]: > 100 µM | TGI [43]: > 100 µM | TGI [44]: > 100 µM | TGI [45]: > 100 µM | TGI [46]: > 100 µM | TGI [49]: > 100 µM | TGI [50]: > 100 µM | TGI [51]: 58.3 µM | TGI [53]: > 100 µM | TGI [54]: > 100 µM | TGI [55]: > 100 µM | TGI [56]: > 100 µM

CSC(Cc1ccc2c(c1)Sc1ccccc1O2)=[N+]1CCOCC1
TGI [1]: > 100 µM | TGI [2]: > 100 µM | TGI [3]: > 100 µM | TGI [4]: > 100 µM | TGI [5]: > 100 µM | TGI [6]: > 100 µM | TGI [7]: > 100 µM | TGI [9]: > 100 µM | TGI [10]: > 100 µM | TGI [11]: > 100 µM | TGI [12]: > 100 µM | TGI [13]: > 100 µM | TGI [14]: 11.7 µM | TGI [15]: > 100 µM | TGI [16]: > 100 µM | TGI [17]: > 100 µM | TGI [19]: > 100 µM | TGI [20]: > 100 µM | TGI [21]: > 100 µM | TGI [22]: > 100 µM | TGI [23]: > 100 µM | TGI [24]: > 100 µM | TGI [25]: > 100 µM | TGI [26]: > 100 µM | TGI [27]: > 100 µM | TGI [28]: > 100 µM | TGI [29]: > 100 µM | TGI [30]: > 100 µM | TGI [31]: > 100 µM | TGI [32]: > 100 µM | TGI [33]: > 100 µM | TGI [57]: > 100 µM | TGI [34]: > 100 µM | TGI [35]: > 100 µM | TGI [36]: > 100 µM | TGI [37]: 90.9 µM | TGI [38]: > 100 µM | TGI [58]: > 100 µM | TGI [39]: > 100 µM | TGI [40]: > 100 µM | TGI [41]: > 100 µM | TGI [42]: > 100 µM | TGI [43]: > 100 µM | TGI [44]: > 100 µM | TGI [46]: > 100 µM | TGI [47]: > 100 µM | TGI [48]: > 100 µM | TGI [49]: > 100 µM | TGI [50]: > 100 µM | TGI [51]: 86.6 µM | TGI [52]: > 100 µM | TGI [53]: > 100 µM | TGI [54]: > 100 µM | TGI [55]: > 100 µM | TGI [56]: > 100 µM
